The species named for one test is Mus musculus. The experiment in a line: animal or person. The settings on record: NMRI.
A further test concerns the target Histamine H1 receptor (Cavia porcellus, UniProt P31389). The experiment in a line: Displacement of [3H]pyrilamine from histamine H1 receptor in guinea pig cerebellum. The class given is tissue-based. Background: In a radioligand displacement assay an active substance lowers the binding of a labelled ligand.
For test [1], the target named is Voltage-gated inwardly rectifying potassium channel KCNH2 (Homo sapiens, UniProt Q12809).
Description: Binding affinity to human ERG expressed in HEK293 cells by whole cell patch clamp method

Structures are written as SMILES.

Voltage-gated inwardly rectifying potassium channel KCNH2, sequence (Q12809 whole entry): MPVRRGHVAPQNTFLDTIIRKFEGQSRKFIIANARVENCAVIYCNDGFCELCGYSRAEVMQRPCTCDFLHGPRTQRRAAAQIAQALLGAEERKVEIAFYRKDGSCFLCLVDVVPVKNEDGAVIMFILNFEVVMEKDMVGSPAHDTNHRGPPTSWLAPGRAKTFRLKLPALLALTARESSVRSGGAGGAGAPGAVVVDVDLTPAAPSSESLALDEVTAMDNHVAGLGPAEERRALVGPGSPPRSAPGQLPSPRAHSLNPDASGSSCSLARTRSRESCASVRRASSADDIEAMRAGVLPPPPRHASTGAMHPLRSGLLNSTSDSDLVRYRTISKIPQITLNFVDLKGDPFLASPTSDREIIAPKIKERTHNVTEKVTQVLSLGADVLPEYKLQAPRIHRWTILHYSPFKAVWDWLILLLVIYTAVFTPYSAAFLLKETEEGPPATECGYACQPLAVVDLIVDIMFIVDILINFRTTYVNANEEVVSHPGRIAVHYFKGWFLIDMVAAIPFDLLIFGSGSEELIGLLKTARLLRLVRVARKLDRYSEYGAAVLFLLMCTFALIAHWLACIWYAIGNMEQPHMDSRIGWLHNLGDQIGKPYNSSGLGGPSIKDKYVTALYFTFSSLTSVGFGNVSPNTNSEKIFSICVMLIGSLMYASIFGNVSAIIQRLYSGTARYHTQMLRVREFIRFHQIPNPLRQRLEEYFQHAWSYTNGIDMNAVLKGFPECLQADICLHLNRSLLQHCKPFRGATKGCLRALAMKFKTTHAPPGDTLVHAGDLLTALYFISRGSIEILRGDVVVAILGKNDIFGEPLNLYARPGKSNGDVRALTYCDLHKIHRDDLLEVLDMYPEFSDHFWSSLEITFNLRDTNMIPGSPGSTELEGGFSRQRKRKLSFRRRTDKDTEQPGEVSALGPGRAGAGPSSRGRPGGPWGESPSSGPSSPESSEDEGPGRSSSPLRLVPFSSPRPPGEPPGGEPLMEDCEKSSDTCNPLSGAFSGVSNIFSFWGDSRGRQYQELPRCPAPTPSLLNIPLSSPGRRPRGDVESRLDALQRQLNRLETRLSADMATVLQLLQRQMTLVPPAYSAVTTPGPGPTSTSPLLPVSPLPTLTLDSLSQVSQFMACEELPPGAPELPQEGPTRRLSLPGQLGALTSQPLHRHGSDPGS
Histamine H1 receptor, sequence (P31389 whole entry): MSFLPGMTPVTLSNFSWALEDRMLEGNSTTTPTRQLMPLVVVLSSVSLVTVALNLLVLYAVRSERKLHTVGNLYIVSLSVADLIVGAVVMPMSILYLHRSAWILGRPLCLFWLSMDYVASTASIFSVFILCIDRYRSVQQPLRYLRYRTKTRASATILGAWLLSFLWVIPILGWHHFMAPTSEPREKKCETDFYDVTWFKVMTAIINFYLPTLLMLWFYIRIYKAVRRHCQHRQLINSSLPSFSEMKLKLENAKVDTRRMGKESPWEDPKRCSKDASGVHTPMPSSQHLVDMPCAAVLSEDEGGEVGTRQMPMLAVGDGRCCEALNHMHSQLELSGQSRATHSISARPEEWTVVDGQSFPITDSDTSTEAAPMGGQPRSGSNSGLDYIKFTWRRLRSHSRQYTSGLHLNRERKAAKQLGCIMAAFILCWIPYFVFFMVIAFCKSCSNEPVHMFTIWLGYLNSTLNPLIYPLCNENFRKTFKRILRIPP
Description for Mus musculus: Antipsychotic activity in NMRI mouse assessed as reduction in methamphetamine-induced locomotor activity administered 30 mins prior to testing measured for 60 mins

For `Cc1cccc(N2CCN(CCCCNC(=O)c3cc4ccccc4o3)CC2)c1`, the median effective dose (ED50) in the test filed under Mus musculus amounted to 2.1 mg/kg. The Ki worked out at 15 nM on Histamine H1 receptor and 930 nM in test [1].

By ED50 is commonly meant the dose that gives a 50% effect, or the effect in half of the subjects. A low value points to an effect at a small dose. For orientation: Ki means the equilibrium dissociation constant of an inhibitor or competing ligand from its target.
